We go through 16 molecules from US7223755B2, “Hydroxymorpholinone derivative and medicinal use thereof” (Senju Pharmaceutical Co., Ltd., priority 2002, dated 2007).

What is called melting point is the temperature of the solid-liquid transition.

Data set [1] concerns T1, μ-calpain (derived from human erythrocyte).
T1 construct: μ-calpain (derived from human erythrocyte, manufactured by Cosmo Bio Co., Ltd.); purchased Cosmo Bio Co., Ltd; host or cells: human erythrocyte (natural source)
The data set can be described thus: μ-calpain inhibitory activity (casein substrate, Coomassie brilliant blue). The note with it: 0.5 mg/mL casein, 30° C. for 60 min; read-out: 50% enzyme inhibitory concentration [IC50 (μM)] μ-calpain. It is filed as biochemical. As for the experimental part: The μ-calpain and m-calpain inhibitory activities were determined according to the method described in a reference [Anal. Biochem. vol. 208, 387-392 (1993)]. To be specific, a reaction mixture (200 μL) containing 0.5 mg/mL casein, 50 mM Tris-HCl buffer (pH 7.4), 20 mM dithiothreitol and 0.03 enzyme unit of μ-calpain (derived from human erythrocyte, manufactured by Cosmo Bio Co., Ltd.) or m-calpain (derived from pig kidney, manufactured by Cosmo Bio Co., Ltd.), dimethyl sulfoxide solution (2.5 μL) containing various concentrations of a test drug and 20 mM aqueous calcium chloride solution (50 μL) were added to a 96 well plate. After reaction at 30° C. for 60 min, the reaction mixture (100 μL) was transferred to a different 96 well plate, and purified water (50 μL) and 50% Coomassie brilliant blue solution (100 μL) were added. The plate was left standing at room temperature for 15 min and absorbance at 595 nm was measured. Using a value, measured after treating in the same manner without a test drug, as a control and a value, obtained by adding 1 mM EDTA instead of 20 mM aqueous calcium chloride solution, as a blank value, an inhibitory rate was calculated from the following formula and the amount (IC50) necessary for 50% inhibition was determined. Inhibitory rate (%)={1−(measured value−blank value)/(control value−blank value)}×100 Test Results 1

For `CC(C)C[C@@H]1OC(O)[C@H](Cc2ccccc2)NC1=O` (stereo partly drawn) [Compound 1, (2S,5S)-5-benzyl-6-hydroxy-2-(2-methylpropyl)-3-morpholinone], in data set [1], the IC50 came to 0.7 µM.

Turning to `CC(C)C[C@@H]1OC(O)[C@H](CCc2ccccc2)NC1=O` (stereo partly drawn) [Compound 2, (2S,5S)-6-hydroxy-2-(2-methylpropyl)-5-(2-phenylethyl)-3-morpholinone], the melting point lay within 94.1 to 95.8 °C. Also, in data set [1], the IC50 amounted to 0.51 µM.

For `CC(C)C[C@@H]1OC(O)[C@H](Cc2ccc3ccccc3c2)NC1=O` (stereo partly drawn) [Compound 3, (2S,5S)-6-hydroxy-2-(2-methylpropyl)-5-(2-naphthylmethyl)-3-morpholinone], the melting point was in the range of 86.5 to 88.5 °C. Besides, the IC50 in data set [1] came to 0.49 µM.

`CC(C)C[C@@H]1OC(O)[C@@H](Cc2ccccc2)NC1=O` (stereo partly drawn) [Compound 4, (2S,5R)-5-benzyl-6-hydroxy-2-(2-methylpropyl)-3-morpholinone] gave a melting point of 130.9 to 131.8 °C. In data set [1], the IC50 was 5.9 µM.

On to `CC(C)[C@@H]1OC(O)[C@H](Cc2ccccc2)NC1=O` (stereo partly drawn) [Compound 5, (2S,5S)-5-benzyl-6-hydroxy-2-(1-methylethyl)-3-morpholinone], for which, in data set [1], the IC50 is 2.3 µM.

As to `CC(C)[C@@H]1OC(O)[C@H](CCc2ccccc2)NC1=O` (stereo partly drawn) [Compound 6, (2S,5S)-6-hydroxy-2-(1-methylethyl)-5-(2-phenylethyl)-3-morpholinone], the IC50 in data set [1] was found to be 3.5 µM.

The molecule `O=C1N[C@@H](Cc2ccccc2)C(O)O[C@H]1Cc1ccccc1` (stereo partly drawn) [Compound 7, (2S,5S)-2,5-dibenzyl-6-hydroxy-3-morpholinone] had a melting point of 165.5 to 166 °C. Also, the IC50 in data set [1] was 17 µM.

For the molecule `CC(C)C[C@@H]1OC(O)[C@H](Cc2ccc(O)cc2)NC1=O` (stereo partly drawn) [Compound 8, (2S,5S)-6-hydroxy-5-((4-hydroxyphenyl)methyl)-2-(2-methylpropyl)-3-morpholinone], the IC50 in data set [1] worked out at 2.5 µM.

`COc1ccc(C[C@@H]2NC(=O)[C@H](CC(C)C)OC2O)cc1` (stereo partly drawn) [Compound 9, (2S,5S)-6-hydroxy-5-((4-methoxyphenyl)methyl)-2-(2-methylpropyl)-3-morpholinone]: the IC50 in data set [1] is 0.68 µM.

In the case of `CCCCOc1ccc(C[C@@H]2NC(=O)[C@H](CC(C)C)OC2O)cc1` (stereo partly drawn) [Compound 10, (2S,5S)-5-((4-butoxyphenyl)methyl)-6-hydroxy-2-(2-methylpropyl)-3-morpholinone], the IC50 in data set [1] came out at 0.52 µM.

As to `CC(C)C[C@@H]1OC(O)[C@H](Cc2ccc(OCC3CCCCC3)cc2)NC1=O` (stereo partly drawn) [Compound 11, (2S,5S)-5-((4-(cyclohexylmethoxy)phenyl)methyl)-6-hydroxy-2-(2-methylpropyl)-3-morpholinone], in data set [1], the IC50 came out at 0.45 µM.

Regarding `CC(C)C[C@@H]1OC(O)[C@H](Cc2ccccc2F)NC1=O` (stereo partly drawn) [Compound 12, (2S,5S)-5-((2-fluorophenyl)methyl)-6-hydroxy-2-(2-methylpropyl)-3-morpholinone], the melting point was 83.9 to 87.9 °C. In data set [1], the IC50 is 2.1 µM.

On to `CC(C)C[C@@H]1OC(O)[C@H](Cc2ccccc2Cl)NC1=O` (stereo partly drawn) [Compound 13, (2S,5S)-5-((2-chlorophenyl)methyl)-6-hydroxy-2-(2-methylpropyl)-3-morpholinone], for which, in data set [1], the IC50 was 0.93 µM.

On to `CC(C)C[C@@H]1OC(O)[C@H](COCc2ccccc2)NC1=O` (stereo partly drawn) [Compound 14, (2S,5S)-5-benzyloxymethyl-6-hydroxy-2-(2-methylpropyl)-3-morpholinone], for which the IC50 in data set [1] worked out at 0.82 µM.

For the molecule `CC(C)C[C@@H]1OC(O)[C@H](CCCCNC(=O)c2ccccc2)NC1=O` (stereo partly drawn) [Compound 16, (2S,5S)-5-(4-(benzoylamino)butyl)-6-hydroxy-2-(2-methylpropyl)-3-morpholinone], the melting point is 128.4 to 129 °C. In addition, the IC50 in data set [1] was found to be 1.1 µM.

As for “(2S,5S)-5-((4-biphenyl)methyl)-6-hydroxy-2-(2-methylpropyl)-3-morpholinone [Compound 15]”, the IC50 in data set [1] was determined as 0.25 µM.
